This is an account of results in US8729053B2, “Nuclear factor kappa B pathway inhibitor composition and use of same” (The United States of America, as represented by the …, priority 2008, dated 2014).

“Also recorded” adds a separate entry of the source. Structures can show the parent of a compound that is named as a salt.

One test concerns the target T1, IKKβ (Homo sapiens, UniProt O14920).
T1 construct: purchased Calbiochem
T1 sequence (O14920 1-756): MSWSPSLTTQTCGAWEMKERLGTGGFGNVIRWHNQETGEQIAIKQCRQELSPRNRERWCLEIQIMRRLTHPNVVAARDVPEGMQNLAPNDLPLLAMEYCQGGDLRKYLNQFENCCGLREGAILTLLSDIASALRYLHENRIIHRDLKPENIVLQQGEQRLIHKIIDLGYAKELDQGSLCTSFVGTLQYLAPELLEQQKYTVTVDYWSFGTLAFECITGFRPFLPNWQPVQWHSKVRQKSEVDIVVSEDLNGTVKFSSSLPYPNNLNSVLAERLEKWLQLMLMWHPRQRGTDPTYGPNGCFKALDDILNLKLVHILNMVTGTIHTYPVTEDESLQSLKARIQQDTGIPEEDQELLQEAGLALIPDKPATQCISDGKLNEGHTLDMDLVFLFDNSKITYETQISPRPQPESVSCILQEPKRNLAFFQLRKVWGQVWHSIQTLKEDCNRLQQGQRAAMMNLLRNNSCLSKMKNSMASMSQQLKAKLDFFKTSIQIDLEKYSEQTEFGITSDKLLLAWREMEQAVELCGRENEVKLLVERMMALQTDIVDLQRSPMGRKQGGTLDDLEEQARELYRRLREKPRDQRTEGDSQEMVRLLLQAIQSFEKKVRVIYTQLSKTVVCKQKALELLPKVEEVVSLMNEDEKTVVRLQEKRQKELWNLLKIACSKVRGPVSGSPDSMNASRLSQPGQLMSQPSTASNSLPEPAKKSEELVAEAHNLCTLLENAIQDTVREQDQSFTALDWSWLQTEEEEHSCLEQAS
In words: K-LISA IKKβ Inhibitor Screening Kit in vitro assay. The test is classed as biochemical. The settings on record: 0.1 to 100 μM, incubated with ATP. As for the experimental part: In an attempt to determine whether compound I interferes with ATP binding to the catalytic site, the activity of compound I was measured with fully activated, phosphorylated IKKα or IKKβ. […] However, whether this compound interacts outside of the ATP binding pocket of IKK as an ATP non-competitive inhibitor similar to BMS-345541 is unknown. […] Luciferase activities with TPA induction alone were set at 100% and the relative activities with TPA in the presence of compounds are shown.

Another test has as its system RelB/p52. Nature of the test: Nuclear translocation of RelB/p52 and p100 processing, immunoblot. The test is classed as cell-based. As to conditions: HEK293. As to the method:
(§1) To measure endogenous level of several proteins in response to TPA induction and compound I, HEK293 cells were lysed with RIPA buffer (10 mM Tris-HCl pH 7.5, 1 mM EDTA, 0.1% sodium dodecyl sulfate, 0.1% deoxycholate, and protease inhibitor). Whole cell extracts were subjected to immunoblot analysis with the following antibodies: p65 (F-6), p50 (E-10), p52 (C-5), RelB (C-19), IκBα (C-21), PCNA (F-2) were obtained from Santa Cruz Biotechnology (Santa Cruz, Calif.). IKKα, IKKβ, IKKγ, phospho-IκBα, phospho-IKKα/β, phospho-IKKγ, pohospho-Stat3 (Tyr 705 and Ser 727), phospho-p65 (Ser536 and Ser276), phospho-p44/42, phospho-JNKs were purchased from Cell Signaling (Danvers, Mass.), and α-tubulin from Sigma (St. Louis, Mo.). Nuclear and cytoplasmic extracts were prepared with HEK293 cells by NE-PER Nuclear and Cytoplasmic Extraction Reagents (Pierce Biotechnology, Rockford, Ill.) according to the manufacturer's protocol.
Nuclear translocation of endogenous p65/p50 and RelB/p52 heterodimers were monitored The activation of heterodimers p65/p50 and RelB/p52 occurs by distinct pathways dependent on IKKβ or IKKα catalytic activity. Repression of IKKβ would be expected to influence nuclear translocation of p65/p50 while repression of IKKα would influence processing of p100 to p52. […] However translocation of RelB is only dependent on IKKα for processing of its dimer partner p52 from p100. This processing depends on phosphorylation of p100 by IKKα. The processing of p100 to nuclear p52 was not inhibited by compound I but was proportional to expression levels of p100. Compound I inhibited expression of p100 by an unknown mechanism. […] Instead compound I inhibits IKKβ.
(In western blotting, separated proteins are transferred to a membrane and probed.)

The subject of another test is estrogen receptor. Nature of the test: ERE promoter luciferase reporter assay in ER-positive breast cancer cells. The test is classed as cell-based. As to the method:
In order to evaluate the potential therapeutic activity of the compound, tests for the biological activity of compound I were performed. The compound is non-toxic to MCF-7, T47D, and MDA-MB-231 breast cancer cells as estimated by XTT assay at 10 μM. To determine the effects of compound I on invasion by breast cancer cell lines, a matrigel invasion assay was used. The levels of phosphorylated IκBα were confirmed in TPA treated ER-positive (MCF-7 and T47D) and ER-negative (MDA-MB-231) breast cancer cell lines and compared the levels to those after pretreatment with compound I. Although induced levels of phosphorylated IκBα varied with the cell line, IκBα phosphorylation was eliminated by compound I treatment in all three breast cancer cell lines. Compound I also produced no effect on the estrogen receptor activity in the ER-positive breast cancer cells using ERE promoter luciferase reporter assay. Invasion capacity of breast cancer cells was increased by TPA stimulation compared to DMSO treated vehicle control. […] Following anchorage-independent colony induction in TPA-treated cells without or with compound I, colonies were lysed and measured with CyQuant GR Dye to detect DNA by fluorescence plate reader as a measure of colony count. Total transformed colony numbers were calculated from RFU and cell dose curve of JB6 cells. […]
In general terms: A reporter such as luciferase makes a cellular process visible.

The next test relates to p65. In words: Immunoblot of phosphorylated p65. The test is classed as cell-based. As for the experimental part: as §1

Consider `Cc1cc(N)ccc1N=Nc1ccc(S(=O)(=O)CCOS(=O)(=O)O)cc1` [compound I, 2-(4-((4-amino-2-methylphenyl)diazenyl)phenylsulfonyl)ethyl hydrogen sulfate], for which, at IKKβ, the “Inhibition of phosphorylation of IκBα peptide substrate catalyzed by IKKβ” value is “no inhibition”. For the same compound, in the test on RelB/p52, the “Expression of p100” value is reported as “inhibited; also recorded: reduced” and the “Processing of p100 to nuclear p52” value was “not inhibited; also recorded: did not inhibit”. Also, in the test on RelB/p52 (compound I pretreatment), the “TPA-induced nuclear translocation of RelB” value was “remarkably repressed”. The “Effect on estrogen receptor activity” value with estrogen receptor is given as “no effect”. The “Phosphorylation of p65 at Ser536” value in the test with p65 was “inhibited”. For the same compound, the “Phosphorylation of p65 at Ser536 and Ser276” value with p65 (FIG. 7) is “decreased”.
